According to patent US20230140983A1, “PYRIDAZINE DERIVATIVES FOR MODULATING NUCLEIC ACID SPLICING” (REMIX THERAPEUTICS INC., priority 2020, published 2023):
pIC50: −log10 of the molar value. Counter-ions that a name gives are not always drawn. Like-named read-outs stand apart in the source and are kept apart here.

What was measured:
Assay type in all cases: cell-based
[1] = tested on: Target C; test: Gene panel canonical junction qPCR assay, Target C CJ mRNA; conditions: Table 9, CJ mRNA decrease, read-out: Target C IC50 (decrease in CJ mRNA levels)
Method: (§1) To set up 10 uL RT-qPCR reactions, cell lysates were transferred to 384-well qPCR plates containing the master mix according to the table below. The plates were sealed, gently vortexed, and spun down before the run. The volumes were adjusted accordingly in some instances where the reaction was carried in 20 uL. The table below summarizes the components of the RT-qPCR reactions:
(§2) The RT-qPCR reaction was performed using a QuantStudio (ThermoFisher) under the following fast cycling conditions. All samples and standards were analyzed at least in duplicate. In some instances, bulk room temperature (RT) step of 5-10 minutes was completed for all plates before proceeding with qPCR. The table below summarizes the PCR cycle:
(§3) The data analysis was performed by first determining the ΔCt vs the housekeeper gene. This ΔCt was then normalized against the DMSO control (ΔΔCt) and converted to RQ (relative quantification) using the 2^(−ΔΔCt) equation. The RQ were then converted to a percentage response by arbitrarily setting an assay window of 3.5 ΔCt for HTT-CJ and an assay window of 9 ΔCt for HTT-AJ. […] The percentage response was then fitted to the 4 parametric logistic equation to evaluate the concentration dependence of compound treatment. The increase in AJ mRNA is reported as AC50 (compound concentration having 50% response in AJ increase) while the decrease in CJ mRNA levels is reported as IC50 (compound concentration having 50% response in CJ decrease).
(§4) Additional studies were carried out for a larger panel of genes using the protocol provided above. The junction between flanking upstream and downstream exons was used to design canonical junction qPCR assays. At least one of the forward primer, reverse primer or the CY5-labeled 5′ nuclease probe (with 3′ quencher such as ZEN/Iowa Black FQ) was designed to overlap with the exon junction to capture the CJ mRNA transcript. BLAST was used to confirm the specificity of the probeset and parameters such as melting temperature, GC content, amplicon size, and primer dimer formation are considered during their design. Data for the decrease in CJ mRNA levels for three exemplary genes (HTT, SMN2, and Target C) analyzed in this panel are reported as IC50 (compound concentration having 50% response in CJ decrease).

[2] = tested on: HTT; test: Gene panel canonical junction qPCR assay, HTT CJ mRNA; conditions: Table 9, CJ mRNA decrease, read-out: HTT IC50 (decrease in CJ mRNA levels)
Method: as §1, §2, §3, §4

[3] = tested on: HTT; test: Splicing assay (RT-qPCR on cell lysates) monitoring HTT splice variants: AJ and CJ mRNA; conditions: concentration having 50% response
Method: Example 69: Exemplary Splicing Assay for Monitoring Expression Levels of Splice Variants
as §1, §2, §3

[4] = tested on: SMN2; test: Gene panel canonical junction qPCR assay, SMN2 CJ mRNA; conditions: Table 9, CJ mRNA decrease, read-out: SMN2 IC50 (decrease in CJ mRNA levels)
Method: as §1, §2, §3, §4

[5] = Table 8, decrease in CJ mRNA, read-out: HTT CJ AC50
[6] = Table 8, increase in AJ mRNA, read-out: HTT AJ AC50
[7] = Table 7, decrease in CJ mRNA, read-out: HTT CJ AC50
[8] = Table 7, increase in AJ mRNA, read-out: HTT AJ AC50

Row | SMILES | pIC50 [1] | pIC50 [2] | AC50 [3, 5] [µM] | AC50 [3, 6] [µM] | pIC50 [4] | AC50 [3, 7] [µM] | AC50 [3, 8] [µM]
1 | CN(c1ccc(-c2ccc(-c3ccn(C)c(=O)c3)c3scnc23)nn1)C1CC(C)(C)NC(C)(C)C1 [Compound 174] | < 5.00 | 5.00 to 6.00 | 1 to 10 | 1 to 10 | 6.00 to 7.00 |  | 
2 | [2H]C([2H])([2H])N(c1ccc(-c2ccc(-c3cn[nH]c3)c3ncsc23)nn1)[C@@H]1C[C@H]2CC[C@@H](C1)N2 [Compound 210, (exo-)-N-(D3)methyl-N-[6-[4-(1H-pyrazol-4-yl)-1,3-benzothiazol-7-yl]pyridazin-3-yl]-8-azabicyclo [3.2.1]octan-3-amine] | > 7.00 | > 7.00 | < 0.1 | < 0.1 | > 7.00 |  | 
3 | c1nc2c(-c3cn[nH]c3)ccc(-c3ccc(N[C@@H]4C[C@H]5CCC[C@@H](C4)N5)nn3)c2s1 [Compound 215] | > 7.00 | > 7.00 | < 0.1 | < 0.1 | > 7.00 |  | 
4 | c1n[nH]cc1-c1ccc(-c2ccc(N3CC4(CCNCC4)C3)nn2)c2[nH]ncc12 [Compound 229] | 5.00 to 6.00 | 5.00 to 6.00 | 1 to 10 | 1 to 10 | 5.00 to 6.00 |  | 
5 | c1nc2c(-c3cn[nH]c3)ccc(-c3ccc(S[C@@H]4C[C@H]5CC[C@@H](C4)N5)nn3)c2s1 [Compound 200, 7-{6-[(exo)-8-azabicyclo[3.2.1]octan-3-ylsulfanyl]pyridazin-3-yl}-4-(1H-pyrazol-4-yl)-1,3-benzothiazole] | < 5.00 | < 5.00 | > 10 | > 10 | < 5.00 |  | 
6 | Fc1cc(-c2ccc(O[C@@H]3C[C@H]4CC[C@@H](C3)N4)nn2)c2[nH]ncc2c1-c1cn[nH]c1 [Compound 216, 7-[6-[(exo)-8-azabicyclo[3.2.1]octan-3-yloxy]pyridazin-3-yl]-5-fluoro-4-(1H-pyrazol-4-yl)-1H-indazole] | 6.00 to 7.00 | > 7.00 | < 0.1 | < 0.1 | > 7.00 |  | 
7 | CN(c1ccc(-c2ccc(-n3cccn3)c3nc[nH]c23)nn1)[C@@H]1C[C@H]2CC[C@@H](C1)N2 [Compound 170] | < 5.00 | 5.00 to 6.00 | 1 to 10 | 1 to 10 | 6.00 to 7.00 | 0.5 to 5 | > 5
8 | CN(c1ccc(-c2ccc(-c3cn[nH]c3)c3ncsc23)nn1)[C@@H]1C[C@H]2CCC[C@@H](C1)N2 [Compound 226] | > 7.00 | > 7.00 | < 0.1 | < 0.1 | > 7.00 |  | 
9 | c1nc2c(-c3cn[nH]c3)ccc(-c3ccc(OC4CCNCC4)nn3)c2s1 [Compound 183] | 6.00 to 7.00 | 6.00 to 7.00 | 0.1 to 1 | 0.1 to 1 | 6.00 to 7.00 | > 5 | > 5
10 | [2H]C([2H])([2H])N(c1ccc(-c2ccc(-c3cn[nH]c3)c3ncsc23)nn1)[C@@H]1C[C@H]2CCC[C@@H](C1)N2 [Compound 227] | > 7.00 | > 7.00 | < 0.1 | < 0.1 | > 7.00 |  | 
11 | [2H]C([2H])([2H])N(c1ccc(-c2ccc(-c3cn[nH]c3)c3ncsc23)nn1)C1CCNCC1 [Compound 223, N-(D3)methyl-N-(piperidin-4-yl)-6-[4-(1H-pyrazol-4-yl)-1,3-benzothiazol-7-yl] pyridazin-3-amine] | 5.00 to 6.00 | 5.00 to 6.00 | 1 to 10 | 1 to 10 | 6.00 to 7.00 |  | 
12 | c1nc2c(-c3cn[nH]c3)ccc(-c3ccc(N4CCNCC4)nn3)c2s1 [Compound 185] | < 5.00 | < 5.00 | > 10 | 1 to 10 | 6.00 to 7.00 | > 5 | > 5
13 | c1nc2c(-c3cn[nH]c3)ccc(-c3ccc(N[C@@H]4C[C@H]5CC[C@@H](C4)N5)nn3)c2s1 [Compound 202, (exo-)-N-[6-[4-(1H-pyrazol-4-yl)-1,3-benzothiazol-7-yl]pyridazin-3-yl]-8-azabicyclo[3.2.1]octan-3-amine] | 6.00 to 7.00 | > 7.00 | < 0.1 | < 0.1 | > 7.00 |  | 
14 | c1nc2c(-c3cn[nH]c3)ccc(-c3ccc(N4CCC5(CCNCC5)C4)nn3)c2s1 [Compound 190] | < 5.00 | < 5.00 | > 10 | > 10 | < 5.00 |  | 
15 | c1nc2c(-c3cn[nH]c3)ccc(-c3ccc(N4CCCC5(CCNC5)C4)nn3)c2s1 (centres unmarked) [Compound 193] | < 5.00 | < 5.00 | > 10 | > 10 | < 5.00 |  | 
16 | CC1(C)CC(Oc2ccc(-c3ccc(-c4cn[nH]c4)c4ncsc34)nn2)CCN1 (centres unmarked) [Compound 182] | 5.00 to 6.00 | 5.00 to 6.00 | 1 to 10 | 1 to 10 | 6.00 to 7.00 | < 0.5 | 0.5 to 5
17 | CCN(c1ccc(-c2ccc(-c3cn[nH]c3)c3ncsc23)nn1)C1CCNCC1 [Compound 224, N-ethyl-N-(piperidin-4-yl)-6-[4-(1H-pyrazol-4-yl)-1,3-benzothiazol-7-yl]pyridazin-3-amine] | < 5.00 | < 5.00 | > 10 | > 10 | 5.00 to 6.00 |  | 
18 | CC1(C)CC(Oc2ccc(-c3ccc(-c4cn[nH]c4)c4ncsc34)nn2)CC(C)(C)N1 [Compound 181] | < 5.00 | < 5.00 | > 10 | > 10 | > 7.00 | > 5 | > 5
19 | c1n[nH]cc1-c1ccc(-c2ccc(OC3CCNCC3)nn2)c2[nH]ncc12 [Compound 230] | < 5.00 | < 5.00 | > 10 | > 10 | 5.00 to 6.00 |  | 
20 | CN1C[C@@H]2CN(c3ccc(-c4ccc(-c5cn[nH]c5)c5ncsc45)nn3)C[C@@H]2C1 [Compound 198, 7-{6-[(exo)-5-methyl-hexahydropyrrolo[3,4-c]pyrrol-2-yl]pyridazin-3-yl}-4-(1H-pyrazol-4-yl)-1,3-benzothiazole hydrochloride] | < 5.00 | < 5.00 | > 10 | > 10 | 6.00 to 7.00 |  | 
21 | c1nc2c(-c3cn[nH]c3)ccc(-c3ccc(N4CCC5(CC4)CNC5)nn3)c2s1 [Compound 188] | < 5.00 | < 5.00 | > 10 | > 10 | < 5.00 | > 5 | > 5
22 | c1nc2c(-c3cn[nH]c3)ccc(-c3ccc(O[C@@H]4C[C@H]5CC[C@@H](C4)N5)nn3)c2s1 [Compound 184] | 6.00 to 7.00 | 6.00 to 7.00 | 0.1 to 1 | < 0.1 | > 7.00 | < 0.5 | 0.5 to 5
23 | c1nc2c(-c3cn[nH]c3)ccc(-c3ccc(O[C@@H]4C[C@H]5CCC[C@@H](C4)N5)nn3)c2s1 [Compound 209] | < 5.00 | < 5.00 | > 10 | > 10 | 6.00 to 7.00 |  | 
24 | CN(c1ccc(-c2ccc(-c3ccc(=O)n(C)c3)c3scnc23)nn1)C1CC(C)(C)NC(C)(C)C1 [Compound 178] | < 5.00 | < 5.00 | > 10 | > 10 | < 5.00 |  | 
25 | c1nc2c(-c3cn[nH]c3)ccc(-c3ccc(NC4CCNCC4)nn3)c2s1 [Compound 214, N-(piperidin-4-yl)-6-[4-(1H-pyrazol-4-yl)-1,3-benzothiazol-7-yl]pyridazin-3-amine] | < 5.00 | < 5.00 | > 10 | 1 to 10 | 6.00 to 7.00 |  | 
26 | c1nc2c(-c3cn[nH]c3)ccc(-c3ccc(NC4CNC4)nn3)c2s1 [Compound 196] | < 5.00 | < 5.00 | > 10 | > 10 | < 5.00 |  | 
27 | c1n[nH]cc1-c1ccc(-c2ccc(S[C@@H]3C[C@H]4CC[C@@H](C3)N4)nn2)c2[nH]ncc12 [Compound 221] | < 5.00 | < 5.00 | > 10 | > 10 | < 5.00 |  | 
